Laboratory results published in patent US20150309031A2, “COMPOSITIONS AND METHODS FOR PROGNOSIS AND TREATMENT OF CANCER” (NOVAZOI THERANOSTICS, priority 2013, published 2015).

How the values were obtained:
Type in all cases: cell-based
MDA-MB-231 (231) cells = assay: subG1 (hypodiploid) fraction by flow cytometry, 231 cells
Protocol: (§1) Trypsinized cells were resuspended in PBS at 10^6 cells/ml. Cells were then fixed by addition of ice-cold 70% ethanol. Ethanol-fixed cells were kept overnight at 4° C. before staining. Cells were pelleted and washed twice with PBS. Cell pellets were incubated for an hour at room temperature with mouse anti-MPM-2 antibody (Millipore, Mass., USA), followed by 1 h incubation with Alexa-488 anti-mouse secondary antibody (Life Technologies, NY, USA). Finally cells were washed, pelleted and resuspended in propidium iodide-containing isotonic buffer (0.1 mg/mL) and 0.5% Triton X-100. Cell cycle distribution was determined by flow cytometry using an LSR Fortessa Flow cytometer (BD Biosciences, CA, USA) and analyzed using Flowjo software (Tree Star, OR, USA). […] The duration, highest degree, and rapidity of onset of MA varied between drugs, drug concentrations, and cell lines (FIGS. 2A, 2B). In general, the maximum MA achieved was less pronounced in Nos- and PJ-treated cells (FIGS. 2A, 2B). Drug-induced onset of MA was corroborated by substantial increases in cyclin B1 levels in all cell lines (FIG. 2C). […] Instances where the subG1 fraction was elevated without cleaved caspase-3 may either represent caspase-independent cell death or the presence of hypodiploid cells whose fate is unclear.

HeLa cells = assay: subG1 (hypodiploid) fraction by flow cytometry, HeLa cells
Protocol: as §1

MCF10A cells = assay: Centrosome amplification (CA) by microscopy, MCF10A cells; details: interphase and mitotic cells, over 24 h
Protocol: (§2) Consequently, CA was assessed in cultures treated with different concentrations of declustering drugs for 6, 12, 18, or 24 h and untreated controls via microscopy. Centrosomes were identified by γ-tubulin and centrin-2 colocalization at discrete foci. […] The peak percent CA detected over 24 h is shown in FIG. 6 (only statistically significant (P<0.05) increases over control values are represented in the Figures). Representative confocal micrographs of CA in interphase and mitotic cells, both control and drug treated, are depicted in FIG. 7. No significant correlations between the degree of CA (FIG. 5A) and the expression levels of PLK4, Cyclin E, and Aurora A were found (FIG. 4).
To determine whether the CA-inducing activity of declustering drugs is restricted to cancer cells, two non-malignant cell lines, mammary fibrocystic (MCF10A) cells and adult human dermal fibroblasts were treated with these drugs. Neither one of RBN, GF or PJ induced CA or cell death (Table 8) in these cell lines. […] In comparison, 10 and 25 μM RBN increased peak CA over controls in interphase cells (p<0.001 and p=0.001, respectively), with the lower concentration dramatically augmenting peak CA to 56% of cells versus 15% for the higher dose (FIG. 9B). Only 10 but not 25 μM RBN increased the extent of CA in mitotic cells, and this upregulation was only slight (10%, p=0.041).

231, HeLa and PC3 cells = assay: Centrosome amplification (CA) by microscopy, all cancer cell lines tested
Protocol: as §2
To better understand the “potency” of drug-induced CA with time, the average fold change in CA over controls over 24 h was assessed (FIG. 5A), whereby the extent of CA across time points (i.e., 6, 12, 18, and 24 h) was averaged and then divided by the extent of CA in control (i.e., 0 h). All of the drugs at least doubled the peak extent of CA in all cell lines tested (FIG. 5A), although the final extent of CA could be small or large in magnitude depending on the initial centrosomal burden as shown in FIG. 4. […] The extent of CA was less in interphase cells, with maximum values of 31% and 87% for 10 and 25 μM RBN (FIG. 6A). […]

[1] = tested on: adult human dermal fibroblasts (HDF); assay: subG1 (hypodiploid) fraction by flow cytometry, HDFs
[2] = tested on: MDA-MB-231 (231), PC3, and HeLa cells; assay: Mitotic arrest (MA) by flow cytometry (MPM2/PI), across cell lines; details: coarse-grained categories
Protocol: Trypsinized cells were resuspended in PBS at 10^6 cells/ml. Cells were then fixed by addition of ice-cold 70% ethanol. Ethanol-fixed cells were kept overnight at 4° C. before staining. Cells were pelleted and washed twice with PBS. Cell pellets were incubated for an hour at room temperature with mouse anti-MPM-2 antibody (Millipore, Mass., USA), followed by 1 h incubation with Alexa-488 anti-mouse secondary antibody (Life Technologies, NY, USA). Finally cells were washed, pelleted and resuspended in propidium iodide-containing isotonic buffer (0.1 mg/mL) and 0.5% Triton X-100. Cell cycle distribution was determined by flow cytometry using an LSR Fortessa Flow cytometer (BD Biosciences, CA, USA) and analyzed using Flowjo software (Tree Star, OR, USA).
To evaluate the impact of putative declustering drugs on cell cycle progression and hypodiploidy (<2N DNA content, which may indicate apoptotic cells), MDA-MB-231 (231), PC3, and HeLa cells were treated with different concentrations of declustering drugs, stained with propidium iodide, labeled with anti-MPM2 antibody, and then assessed by flow cytometry at multiple time points over 48 h. […] The duration, highest degree, and rapidity of onset of MA varied between drugs, drug concentrations, and cell lines (FIGS. 2A, 2B). In general, the maximum MA achieved was less pronounced in Nos- and PJ-treated cells (FIGS. 2A, 2B). […]

Substance: reduced bromonoscapine [RBN]
- Peak subG1 percent over 48 h (MDA-MB-231 (231) cells; 10 μM): 47.0%
- Peak subG1 percent over 48 h (MDA-MB-231 (231) cells; 25 μM): 80.8%
- maximum subG1 fraction relative to control (MDA-MB-231 (231) cells; 25 μM): 25 × control
- Peak subG1 percent over 48 h (HeLa cells; 10 μM): 54.1%
- maximum subG1 fraction relative to control (HeLa cells; 10 μM): 9 × control
- Peak subG1 percent over 48 h (HeLa cells; 25 μM): 75.6%
- change of CA over control levels (in words) (MCF10A cells): significantly increased the peak extent of CA in interphase and mitotic MCF10A cells
- induction of CA (231, HeLa and PC3 cells): induced CA in all three cell lines
- Peak subG1 percent over 48 h ([1]; 10 μM): 35.9%
- Peak subG1 percent over 48 h ([1]; 25 μM): 39.9%
- peak MA (MA:HR), cells in MA [2]: ≥ 30%
